Experimental data published in patent US7879342B2, “Vaccine adjuvant and making and using the same” (Univ. of Georgia Research Foundation, Inc., priority 2004, dated 2011).

Tested on: Eimeria tenella
Assay: Protective immunity against Eimeria tenella challenge after in ovo treatment and live coccidiosis vaccine
Assay type: in vivo, Broiler chicks
Design: key to Mean Cecal Score: cecal lesion score per Johnson & Reid (1970); Mean Gain: unit not given here
Details: challenged at 28 days
Excerpt: A laboratory strain of Eimeria tenella was used as live coccidiosis vaccine (1000 oocysts per bird), and was given by individual oral gavage to day-old chicks. At 28 days of age, each bird was challenged by inoculation of virulent cecal coccidia (a field isolate of E. tenella with a challenge dose of 100,000 oocysts per bird) or kept as unchallenged controls. Six days post-challenge, birds were euthanized for necropsy and lesion score (see, e.g., Johnson & Reid, 1970, Exper. Parasitol. 28:30-36). Weight gains were calculated. […] Partial protection is not uncommon with coccidiosis vaccines administered in this way in short term challenge experiments. […]

[1] = E10 (10 IU) in ovo, Table 2 second set
[2] = E10 (10 IU) in ovo, Table 2 third set
[3] = E20 (20 IU) in ovo, Table 2 second set
[4] = E20 (20 IU) in ovo, Table 2 third set
[5] = E30 (30 IU) in ovo, Table 2 second set
[6] = E30 (30 IU) in ovo, Table 2 third set

vitamin E was tested, and the “Mean Cecal Score” value [1] was 1.53, the “Mean Gain” value [1] was 361 and the “Mean Cecal Score” value [2] was 1.46. For the same substance, the “Mean Gain” value [2] was 438, the “Mean Cecal Score” value [3] was 1.73 and the “Mean Gain” value [3] was 357. The “Mean Cecal Score” value [4] was 1.21, the “Mean Gain” value [4] was 322 and the “Mean Cecal Score” value [5] was 1.55. The “Mean Gain” value [5] was 388, the “Mean Cecal Score” value [6] was 0.5 and the “Mean Gain” value [6] was 454.
